The values that follow come from paper PMC12741935 (Alzheimer's & Dementia, 2025).

Structures are written as SMILES.

Series [1] concerns kinome; broad panel of proteases, receptors, and bromodomains. As to conditions: cited from earlier work.
Series [2] in a line: Adverse event observation in CD-1 PK study. Type of series: in vivo. As to conditions: 10 mg/kg IP, CD-1 mice. Here is the method: The dose volume was 10 mL/kg.
In series [3] the test system is 14 DIV hippocampal neurons. Nature of the series: oTau-induced dendrite degeneration (MAP2 dendrite length, number) in cultured hippocampal neurons. Format: cell-based, mouse. The following applies: oTau 50 nM + inhibitor 24 h vs oTau alone, NVS-PAK1-1 10 nM, AZ 1 nM, G 5 nM. Here is the method:
(§1) For in vitro study, all animal procedures were conducted in accordance with the National Institutes of Health Guide for the Care and Use of Laboratory Animals using protocols approved by the institutional animal care and use committee at Stanford University. Timed pregnant C57BL/6 mice (Strain code: 027) were purchased from Charles River Laboratories and delivered on embryonic day 15 (E15), after which E16 embryos were used for primary hippocampal cultures. Primary embryonic mouse hippocampal neuron cultures were plated on poly‐D‐lysine‐coated (10 µg/mL) glass cover slips at 40,000 to 50,000 cells per well in 12‐well plates (Corning Life Sciences). Cells were seeded in plating medium DMEM/F12 supplemented with 10% fetal bovine serum and 1 × penicillin/streptomycin (PS) for 2 hours. Medium was then changed to B‐27 Plus Neuronal Culture System (Invitrogen) supplemented with PS, and 2 mM glutamine.
(§2) Immunofluorescence was performed as described previously.[24] Briefly, cultured hippocampal neurons were fixed in 4% formaldehyde for 20 minutes, permeabilized for 6 minutes in 80% ice‐cold methanol, and incubated with primary antibodies at 4°C overnight. Primary antibodies used were rabbit polyclonal MAP2 antibody for labeling dendrites (1:1000, #8707, Cell Signaling) and mouse monoclonal drebrin antibody for labeling dendritic spines (1:300; Cat#ADI‐NBA‐110, Enzo). Secondary antibodies consisted of donkey antirabbit or antimouse conjugated with either FITC or Cy3 (1:400; Jackson ImmunoResearch Laboratories, Inc.).
(§3) The cultured hippocampal neurons were imaged using an oil‐based 63x objective on a Leica Stellaris 5 confocal microscope. The cell nucleus was stained with DAPI and imaged at a wavelength of 405 nm (blue channel), the dendrites stained by MAP2 were imaged at 488 nm wavelength (green channel), and the drebrin‐stained spines were imaged at a wavelength of 561 nm (red channel). Z‐stack images of neurons were acquired at a 1024 × 1024 resolution, a zoom factor of 1.0, and a z‐step size of 0.5 µm. The number of steps for every z‐stack picture of a neuron were determined by the size of the neuron in the z‐plane, to ensure that the entirety of a neuron is captured in the picture. The areas to be imaged were selected systematically, starting from the top‐left region to proceeding to the bottom‐right region of a coverslip. For imaging, preference was given to field of views containing isolated neurons versus clustered neurons.
For quantification of drebrin‐positive spines in vitro, the images were analyzed using Imaris 9.3 software. Each image consisted of one major neuron and the “filaments” option in Imaris was applied to manually trace along the dendrites of every neuron, by placing starting and seed points at the beginning and along the length of the dendrites, respectively. The largest dendrite diameter (i.e., Starting Point) was set at 9.00 µm threshold while the thinnest dendrite diameter (i.e., Seed Point) was set at 1.00 µm threshold. After manually tracing the dendrites, the spines along the dendrites were assessed using the automatic “spine detection” function in Imaris. The thinnest spine diameter was set at 0.80 µm threshold while the maximum spine length was set at 5.00 µm. The spine density (number of spines/dendrite length) was then calculated for each neuron. All image acquisition and quantification were performed in a blind manner. For in vitro quantification of dendrite degeneration, Neurolucida (MBF Biosciences) in the manual mode was used to measure the total dendritic length, numbers of dendrites, and dendritic complexity for each neuron.

Series [4] is described as follows: Body weight during chronic twice daily oral dosing of aged 5xFAD mice. Format: in vivo. The following applies: 8- to 9-month-old 5xFAD, twice daily oral administration, within first 31 days; seen with both NVS-PAK1-1 and vehicle. Here is the method: Serial blood was collected from n = 3 per treatment group at 0.5, 1, 2, and 4 hours post dose; with terminal blood and brain collected at 4 hours post dose. A staggered cohort of n = 3 per treatment group were assigned to serial blood collections at 0.5, 1, 2, and 8 hours post dose with terminal blood and brain collected at 4 and 24 hours post dose. Informed by exposure data from the initial PK/PD study, a subsequent chronic PK/PD study was designed to evaluate twice daily treatment of 100 mg/kg (PO) in female and male 5xFAD mice compared to age‐ and sex‐matched vehicle‐treated 5xFAD and vehicle‐treated WT littermate controls (Table S2 in supporting information). Terminal blood and brain was collected at 4 hours after the final dose. […] All in vivo target engagement and PK/PD studies were conducted under blinded conditions for age, genotype, and treatment, and the blind was maintained until after analyses were conducted.
Drug concentrations were prepared immediately before dosing each day. The dose volume was delivered at 10 mL/kg based on each subject's daily weight collected just prior to the morning dose and administered via PO. For the chronic PD study, twice daily dosing (BID) was conducted between 7:00 and 9:00 am each morning and 3:00 to 5:00 pm each evening with the same day's formulation stored at 4°C between dosing intervals.

Series [5] deals with 14 DIV mouse hippocampal neurons. Nature of the series: oAβ-induced spine loss: drebrin-positive spine density in cultured hippocampal neurons. Format: cell-based. The procedure:
as §1, §2, §3
For quantification of drebrin‐positive spines in vitro, the images were analyzed using Imaris 9.3 software. Each image consisted of one major neuron and the “filaments” option in Imaris was applied to manually trace along the dendrites of every neuron, by placing starting and seed points at the beginning and along the length of the dendrites, respectively. The largest dendrite diameter (i.e., Starting Point) was set at 9.00 µm threshold while the thinnest dendrite diameter (i.e., Seed Point) was set at 1.00 µm threshold. After manually tracing the dendrites, the spines along the dendrites were assessed using the automatic “spine detection” function in Imaris. […] The spine density (number of spines/dendrite length) was then calculated for each neuron. All image acquisition and quantification were performed in a blind manner. For in vitro quantification of dendrite degeneration, Neurolucida (MBF Biosciences) in the manual mode was used to measure the total dendritic length, numbers of dendrites, and dendritic complexity for each neuron.

For `CC(C)NC(=O)N1CC[C@H](NC2=Nc3cc(F)ccc3N(CC(F)F)c3ccc(Cl)cc32)C1` [NVS‐PAK1‐1, (S)‐3‐([2‐chloro‐5‐(2,2‐difluoroethyl)‐8‐fluoro‐5H‐dibenzo[b,e][1,4]diazepin‐11‐yl]amino)‐N‐isopropylpyrrolidine‐1‐carboxamide], the “cross-reactivity with a broad panel of proteases, receptors, and bromodomains” value in series [1] was “no significant cross‐reactivity”. Further, the adverse events entry in series [2] is on record as “No adverse events were observed”. For the same compound, the “dendrite number per neuron” value in series [3] is “significantly increased dendrite number per neuron”. In addition, the “total dendrite length per neuron” value in series [3] (PAK1-C 10 nM) is on record as “preserved dendrite length”. In addition, the weight loss entry in series [4] is “≈ 20%”. Further, in series [5] (Mus musculus, Hippocampal neuron, 24 h, oAβ 1 µM, 24 h, 14 DIV neurons, read-out: EC50, concentration at which NVS-PAK1-1 reduced oAβ-induced loss of spine density by 50%), the EC50 amounted to 2 nM. For the same compound, the “drebrin-stained spine density (spine counts per µm of dendritic length)” value in series [5] (oAβ 1 µM + inhibitor 24 h vs oAβ alone, NVS-PAK1-1 10 nM, NVS-PAK1-C 10 nM, AZ13705339 1 nM, G5555 5 nM) was “significantly higher spine counts”.
